From patent publication US20210163485A1, “Heterocyclic Compounds for the Treatment of Disease” (Oppilan Pharma Ltd., priority 2017, published 2021) come the findings set out here.

Structures are written as SMILES.

In the test the target is T1, full-length human S1P1 (Homo sapiens, UniProt P21453).
T1 construct: CHO-K1 Gαqi5 cells expression full-length human S1P1; expressed in transfected cells; host or cells: CHO-K1 Gαqi5 cells (membrane preparation)
T1 sequence (P21453 whole entry): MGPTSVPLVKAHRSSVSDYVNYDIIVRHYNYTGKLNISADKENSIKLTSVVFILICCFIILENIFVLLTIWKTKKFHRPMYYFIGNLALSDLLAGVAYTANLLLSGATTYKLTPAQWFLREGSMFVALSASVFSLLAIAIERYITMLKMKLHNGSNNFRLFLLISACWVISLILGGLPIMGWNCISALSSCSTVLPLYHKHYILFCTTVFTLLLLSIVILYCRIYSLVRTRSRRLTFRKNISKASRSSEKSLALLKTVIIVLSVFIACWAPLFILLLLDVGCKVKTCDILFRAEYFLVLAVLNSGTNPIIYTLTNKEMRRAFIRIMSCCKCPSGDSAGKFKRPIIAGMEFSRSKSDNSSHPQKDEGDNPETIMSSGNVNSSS
Description: GTPγS binding assay (scintillation proximity assay) with S1P1 membranes. It counts as biochemical. Conditions: S1P1 membrane from CHO-K1 Gαqi5 cells; GTPγ35S SPA, 60 minutes incubation. The procedure: S1P1 membrane is prepared from CHO-K1 Gαqi5 cells expression full-length human S1P1. Scintillation proximity assay (SPA) is performed by incubating membranes, GTPγ^35S, and compounds at various concentrations for 60 minutes. Wheat germ agglutinin-coated SPA beads are added and incubated for 60 minutes before centrifugation and scintillation counting.
`OC[C@@H](O)COc1cc(Cl)c(-c2noc(-c3cn4cc(C(F)(F)F)ncc4n3)n2)cc1Cl` [Compound 9, (R)-3-(2,5-dichloro-4-(5-(6-(trifluoromethyl)imidazo[1,2-a]pyrazin-2-yl)-1,2,4-oxadiazol-3-yl)phenoxy)propane-1,2-diol] had an EC50 of under 100 nM. `OC[C@H](O)COc1cc(Cl)c(-c2noc(-c3cn4cc(C(F)(F)F)ncc4n3)n2)cc1Cl` [Compound 8, (S)-3-(2,5-dichloro-4-(5-(6-(trifluoromethyl)imidazo[1,2-a]pyrazin-2-yl)-1,2,4-oxadiazol-3-yl)phenoxy)propane-1,2-diol] registered an EC50 of under 100 nM.

In turn, `CC(CO)Oc1cc(Cl)c(-c2noc(-c3cn4cc(C(F)(F)F)ncc4n3)n2)cc1Cl` (stereo not shown) [Compound 7, 2-(2,5-dichloro-4-(5-(6-(trifluoromethyl)imidazo[1,2-a]pyrazin-2-yl)-1,2,4-oxadiazol-3-yl)phenoxy)propan-1-ol] showed an EC50 of under 100 nM.

Take `N[C@@H](CO)COc1cc(Cl)c(-c2noc(-c3cn4cc(C(F)(F)F)ncc4n3)n2)cc1Cl` [Compound 24, (S)-2-amino-3-(2,5-dichloro-4-(5-(6-(trifluoromethyl)imidazo[1,2-a]pyrazin-2-yl)-1,2,4-oxadiazol-3-yl)phenoxy)propan-1-ol]: the EC50 was under 100 nM.

`CC(CO)Oc1cc(Cl)c(-c2noc(-c3cn4nc(C(F)(F)F)ccc4n3)n2)cc1Cl` (stereo not shown) [Compound 21, 2-(2,5-dichloro-4-(5-(6-(trifluoromethyl)imidazo[1,2-b]pyridazin-2-yl)-1,2,4-oxadiazol-3-yl)phenoxy)propan-1-ol] came in with an EC50 of 100 to 1000 nM. `N[C@@H](CO)COc1cc(Cl)c(-c2noc(-c3cn4nc(C(F)(F)F)ccc4n3)n2)cc1Cl` [Compound 19, (S)-2-amino-3-(2,5-dichloro-4-(5-(6-(trifluoromethyl)imidazo[1,2-b]pyridazin-2-yl)-1,2,4-oxadiazol-3-yl)phenoxy)propan-1-ol] displayed an EC50 of under 100 nM. The result for `OC[C@H](O)COc1cc(Cl)c(-c2noc(-c3cn4nc(C(F)(F)F)ccc4n3)n2)cc1Cl` [Compound 22, (S)-3-(2,5-dichloro-4-(5-(6-(trifluoromethyl)imidazo[1,2-b]pyridazin-2-yl)-1,2,4-oxadiazol-3-yl)phenoxy)propane-1,2-diol] reads 100 to 1000 nM.
